Assay results reported in patent publication US9777001B2 (priority 2014, dated 2017).
Structures can show the parent of a compound that is named as a salt.

Key:
human Factor XIa = human Factor XIa (Homo sapiens, UniProt P03951); experiment: biochemical; conditions: purified human Factor XIa, substrate S-2366, HEPES buffer pH 7.4
human plasma kallikrein = human plasma kallikrein (Homo sapiens, UniProt P03952); experiment: biochemical; conditions: purified human plasma kallikrein, substrate S-2302, sodium phosphate buffer pH 7.5
human plasma kallikrein, sequence (P03952 391-638 limits assumed): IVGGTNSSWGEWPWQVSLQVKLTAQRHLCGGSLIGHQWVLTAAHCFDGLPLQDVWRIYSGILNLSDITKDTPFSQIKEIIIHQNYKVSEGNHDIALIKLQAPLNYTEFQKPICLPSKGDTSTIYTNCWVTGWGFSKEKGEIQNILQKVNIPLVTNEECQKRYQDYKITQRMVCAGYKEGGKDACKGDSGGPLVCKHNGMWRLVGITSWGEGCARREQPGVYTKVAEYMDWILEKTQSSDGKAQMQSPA
human plasma kallikrein, sequence (P03952 20-390 partner limits assumed): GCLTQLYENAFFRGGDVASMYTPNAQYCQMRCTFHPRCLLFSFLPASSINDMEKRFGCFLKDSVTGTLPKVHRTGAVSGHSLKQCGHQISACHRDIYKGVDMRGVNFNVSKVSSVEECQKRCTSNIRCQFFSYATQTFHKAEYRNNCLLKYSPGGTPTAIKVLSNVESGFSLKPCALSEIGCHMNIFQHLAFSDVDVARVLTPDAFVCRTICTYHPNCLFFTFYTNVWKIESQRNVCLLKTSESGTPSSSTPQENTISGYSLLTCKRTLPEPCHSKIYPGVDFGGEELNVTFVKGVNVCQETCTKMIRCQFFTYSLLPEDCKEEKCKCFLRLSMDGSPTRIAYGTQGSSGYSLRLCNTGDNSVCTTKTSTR

human Factor XIa, sequence (P03951 388-625 limits assumed): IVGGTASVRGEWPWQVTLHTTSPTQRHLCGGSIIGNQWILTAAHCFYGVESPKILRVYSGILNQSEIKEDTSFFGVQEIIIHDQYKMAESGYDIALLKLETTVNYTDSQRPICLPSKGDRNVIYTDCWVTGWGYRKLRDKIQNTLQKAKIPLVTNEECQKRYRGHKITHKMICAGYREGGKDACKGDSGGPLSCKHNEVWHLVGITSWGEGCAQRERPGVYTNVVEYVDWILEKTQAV
human Factor XIa, sequence (P03951 19-387 partner limits assumed): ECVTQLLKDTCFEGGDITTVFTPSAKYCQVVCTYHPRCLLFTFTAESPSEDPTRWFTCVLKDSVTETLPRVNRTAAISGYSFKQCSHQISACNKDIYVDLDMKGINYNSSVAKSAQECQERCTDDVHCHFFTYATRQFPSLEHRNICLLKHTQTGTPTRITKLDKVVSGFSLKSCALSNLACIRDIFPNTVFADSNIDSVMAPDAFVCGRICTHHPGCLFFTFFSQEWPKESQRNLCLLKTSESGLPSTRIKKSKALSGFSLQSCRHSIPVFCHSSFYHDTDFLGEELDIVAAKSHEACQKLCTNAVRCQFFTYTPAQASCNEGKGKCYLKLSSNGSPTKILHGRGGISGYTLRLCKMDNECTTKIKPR

Ki (human Factor XIa) | Ki (human plasma kallikrein) | SMILES
0.22 nM | 19 nM | C[C@@H]1CCC[C@H](n2cnc(-c3cc(Cl)ccc3-n3cc(Cl)nn3)cc2=O)c2ccnc(c2)-c2ccc(C#N)cc2NC1=O [Example 112, (10R,14S)-14-{4-[5-chloro-2-(4-chloro-1H-1,2,3-triazol-1-yl)phenyl]-6-oxo-1,6-dihydropyrimidin-1-yl}-10-methyl-9-oxo-8,18-diazatricyclo [13.3.1.0^2,7]nonadeca-1(19),2(7),3,5,15,17-hexaene-5-carbonitrile]
1 nM | 7 nM | C[C@@H]1CCC[C@H](n2cnc(-c3c(-n4cc(Cl)nn4)ccc(Cl)c3F)cc2=O)c2cc(ccn2)-c2cc(F)ccc2NC1=O [Example 142, (10R,14S)-14-{4-[3-chloro-6-(4-chloro-1H-1,2,3-triazol-1-yl)-2-fluorophenyl]-6-oxo-1,6-dihydropyrimidin-1-yl}-4-fluoro-10-methyl-8,16-diazatricyclo [13.3.1.0^2,7]nonadeca-1(19),2(7),3,5,15,17-hexaen-9-one trifluoroacetate]
1.6 nM | 100 nM | C[C@H]1CCC[C@H](n2cnc(-c3cc(Cl)ccc3-n3cc(C(F)(F)F)nn3)cc2=O)c2ccnc(c2)-c2cc(F)ccc2NC1=O [Example 145, (10S,14S)-14-(4-{5-chloro-2-[4-(trifluoromethyl)-1H-1,2,3-triazol-1-yl]phenyl}-6-oxo-1,6-dihydropyrimidin-1-yl)-4-fluoro-10-methyl-8,18-diazatricyclo[13.3.1.0^2,7]nonadeca-1(19),2,4,6,15,17-hexaen-9-one]
